± gives the expanded uncertainty stated by the source.
Assays:
[1] = 101 kPa, Liquid
[2] = φn = volume fraction of the nth substance listed; details: 101 kPa, Liquid

CNC(C)=O [N-methylacetamide]
[1]
Details	mass density [kg/m3]	speed of sound [m/s]
303.15 K	951.3 ± 2.1	1367 ± 12
308.15 K	945.9 ± 2.2	1362 ± 12
313.15 K	943.6 ± 2.3	1334 ± 12
318.15 K	939.9 ± 2.4	1319 ± 12

CNC(C)=O [N-methylacetamide] + CCOC(=O)CC#N
[2], φ1 = 1
Details	mass density [kg/m3]	speed of sound [m/s]
303.15 K	951.3 ± 2.1	1367 ± 17
308.15 K	945.9 ± 2.2	1362 ± 17
313.15 K	943.6 ± 2.3	1334 ± 17
318.15 K	939.9 ± 2.4	1319 ± 17

CNC(C)=O [N-methylacetamide] + CCOC(=O)CCl
[2], φ1 = 1
Details	mass density [kg/m3]	speed of sound [m/s]
303.15 K	951.3 ± 2.1	1367 ± 12
308.15 K	945.9 ± 2.2	1362 ± 12
313.15 K	943.6 ± 2.3	1334 ± 12
318.15 K	939.9 ± 2.4	1319 ± 12

CNC(C)=O [N-methylacetamide] + CCOC(C)=O
[2]
Details	mass density [kg/m3]	speed of sound [m/s]
303.15 K, φ1 = 0.0538	893.87 ± 1.8	1132 ± 10
303.15 K, φ1 = 0.1843	903.06 ± 1.9	1167 ± 11
303.15 K, φ1 = 0.2972	910.76 ± 1.9	1197 ± 11
303.15 K, φ1 = 0.3991	917.49 ± 1.9	1223 ± 11
303.15 K, φ1 = 0.4982	923.67 ± 1.9	1248 ± 11
303.15 K, φ1 = 0.594	929.3 ± 2	1271 ± 11
303.15 K, φ1 = 0.6955	935.03 ± 2	1295 ± 11
303.15 K, φ1 = 0.7437	937.68 ± 2	1306 ± 12
303.15 K, φ1 = 0.9463	948.19 ± 2.1	1354 ± 12
303.15 K, φ1 = 1	951.3 ± 2.1	1367 ± 12
308.15 K, φ1 = 0.0537	887.58 ± 1.9	1114 ± 10
308.15 K, φ1 = 0.1841	896.86 ± 1.9	1149 ± 10
308.15 K, φ1 = 0.2969	904.58 ± 2	1180 ± 11
308.15 K, φ1 = 0.3988	911.43 ± 2	1208 ± 11
308.15 K, φ1 = 0.4979	917.94 ± 2	1234 ± 11
308.15 K, φ1 = 0.5937	923.93 ± 2.1	1259 ± 11
308.15 K, φ1 = 0.6952	930.02 ± 2.1	1284 ± 11
308.15 K, φ1 = 0.7434	932.86 ± 2.1	1296 ± 11
308.15 K, φ1 = 0.9488	943.96 ± 2.2	1348 ± 12
308.15 K, φ1 = 1	945.9 ± 2.2	1362 ± 12
313.15 K, φ1 = 0.0534	880.97 ± 2	1097 ± 10
313.15 K, φ1 = 0.1833	891.3 ± 2	1132 ± 10
313.15 K, φ1 = 0.2958	899.84 ± 2	1161 ± 11
313.15 K, φ1 = 0.3976	907.15 ± 2.1	1188 ± 11
313.15 K, φ1 = 0.4966	913.79 ± 2.1	1214 ± 11
313.15 K, φ1 = 0.5924	920.09 ± 2.1	1238 ± 11
313.15 K, φ1 = 0.6941	926.71 ± 2.2	1263 ± 11
313.15 K, φ1 = 0.7431	929.67 ± 2.2	1274 ± 11
313.15 K, φ1 = 0.946	941.22 ± 2.2	1322 ± 12
313.15 K, φ1 = 1	943.6 ± 2.3	1334 ± 12
318.15 K, φ1 = 0.0533	875.13 ± 2.1	1074 ± 10
318.15 K, φ1 = 0.1828	886.1 ± 2.1	1113 ± 10
318.15 K, φ1 = 0.2951	894.79 ± 2.1	1144 ± 10
318.15 K, φ1 = 0.3968	902.46 ± 2.2	1172 ± 11
318.15 K, φ1 = 0.4958	909.37 ± 2.2	1198 ± 11
318.15 K, φ1 = 0.5916	915.67 ± 2.2	1223 ± 11
318.15 K, φ1 = 0.6934	922.12 ± 2.2	1249 ± 11
318.15 K, φ1 = 0.7418	925.21 ± 2.3	1261 ± 11
318.15 K, φ1 = 0.9458	937.26 ± 2.3	1309 ± 12
318.15 K, φ1 = 1	939.9 ± 2.4	1319 ± 12

CCOC(C)=O [ethyl acetate]
[1]
Details	mass density [kg/m3]	speed of sound [m/s]
303.15 K	888.9 ± 1.8	1119 ± 10
308.15 K	882.6 ± 1.9	1098 ± 10
313.15 K	875.9 ± 2	1081 ± 10
318.15 K	869.6 ± 2	1058 ± 10

CCOC(C)=O [ethyl acetate] + CNC(C)=O
[2], φ2 = 0
Details	mass density [kg/m3]	speed of sound [m/s]
303.15 K	888.9 ± 1.8	1119 ± 10
308.15 K	882.6 ± 1.9	1098 ± 10
313.15 K	875.9 ± 2	1081 ± 10
318.15 K	869.6 ± 2	1058 ± 10

CCOC(=O)CCl [ethyl chloroethanoate]
[1]
Details	mass density [kg/m3]	speed of sound [m/s]
303.15 K	1139.29 ± 2.6	1229 ± 11
308.15 K	1132.5 ± 2.7	1212 ± 11
313.15 K	1125.9 ± 2.8	1198 ± 11
318.15 K	1119.9 ± 2.9	1177 ± 11

CCOC(=O)CCl [ethyl chloroethanoate] + CNC(C)=O
[2]
Details	mass density [kg/m3]	speed of sound [m/s]
303.15 K, φ2 = 0	1139.29 ± 2.6	1229 ± 11
303.15 K, φ2 = 0.0547	1128.33 ± 2.6	1238 ± 11
303.15 K, φ2 = 0.154	1110.27 ± 2.6	1252 ± 11
303.15 K, φ2 = 0.2473	1093.79 ± 2.5	1265 ± 11
303.15 K, φ2 = 0.2903	1085.92 ± 2.5	1272 ± 11
303.15 K, φ2 = 0.4356	1059.31 ± 2.4	1293 ± 11
303.15 K, φ2 = 0.5321	1041.12 ± 2.4	1305 ± 12
303.15 K, φ2 = 0.6203	1024.32 ± 2.3	1317 ± 12
303.15 K, φ2 = 0.7118	1006.88 ± 2.3	1329 ± 12
303.15 K, φ2 = 0.8656	977.31 ± 2.2	1350 ± 12
308.15 K, φ2 = 0	1132.5 ± 2.7	1212 ± 11
308.15 K, φ2 = 0.0547	1123.26 ± 2.7	1221 ± 11
308.15 K, φ2 = 0.154	1105.23 ± 2.6	1235 ± 11
308.15 K, φ2 = 0.2473	1088.2 ± 2.6	1249 ± 11
308.15 K, φ2 = 0.2902	1080.37 ± 2.6	1256 ± 11
308.15 K, φ2 = 0.4356	1053.83 ± 2.5	1277 ± 11
308.15 K, φ2 = 0.532	1036.02 ± 2.4	1291 ± 11
308.15 K, φ2 = 0.6202	1019.38 ± 2.4	1304 ± 12
308.15 K, φ2 = 0.7118	1002.05 ± 2.3	1318 ± 12
308.15 K, φ2 = 0.8656	972.28 ± 2.3	1342 ± 12
313.15 K, φ2 = 0	1125.9 ± 2.8	1198 ± 11
313.15 K, φ2 = 0.0545	1115.23 ± 2.8	1207 ± 11
313.15 K, φ2 = 0.1535	1098.23 ± 2.7	1220 ± 11
313.15 K, φ2 = 0.2466	1082.14 ± 2.7	1233 ± 11
313.15 K, φ2 = 0.2895	1074.53 ± 2.6	1239 ± 11
313.15 K, φ2 = 0.4347	1048.13 ± 2.6	1259 ± 11
313.15 K, φ2 = 0.5312	1030.46 ± 2.5	1271 ± 11
313.15 K, φ2 = 0.6194	1014.19 ± 2.5	1283 ± 11
313.15 K, φ2 = 0.7111	997.15 ± 2.4	1296 ± 11
313.15 K, φ2 = 0.8652	968.5 ± 2.3	1317 ± 12
318.15 K, φ2 = 0	1119.9 ± 2.9	1177 ± 11
318.15 K, φ2 = 0.0544	1109.19 ± 2.8	1187 ± 11
318.15 K, φ2 = 0.1533	1090.85 ± 2.8	1202 ± 11
318.15 K, φ2 = 0.2464	1073.98 ± 2.7	1207 ± 11
318.15 K, φ2 = 0.2892	1066.23 ± 2.7	1212 ± 11
318.15 K, φ2 = 0.4344	1040.02 ± 2.6	1231 ± 11
318.15 K, φ2 = 0.5308	1022.75 ± 2.6	1244 ± 11
318.15 K, φ2 = 0.6191	1007.06 ± 2.5	1257 ± 11
318.15 K, φ2 = 0.7108	990.68 ± 2.5	1272 ± 11
318.15 K, φ2 = 0.865	963.31 ± 2.4	1296 ± 11

CCOC(=O)CC#N [ethyl cyanoacetate]
[1]
Details	mass density [kg/m3]	speed of sound [m/s]
303.15 K	1051.4 ± 3.1	1397 ± 18
308.15 K	1046.5 ± 3.1	1385 ± 18
313.15 K	1040.8 ± 3.2	1368 ± 17
318.15 K	1034.7 ± 3.3	1359 ± 17

CCOC(=O)CC#N [ethyl cyanoacetate] + CNC(C)=O
[2]
Details	mass density [kg/m3]	speed of sound [m/s]
303.15 K, φ2 = 0	1051.4 ± 3.1	1397 ± 18
303.15 K, φ2 = 0.0529	1048.11 ± 3	1396 ± 18
303.15 K, φ2 = 0.186	1036.06 ± 2.9	1391 ± 18
303.15 K, φ2 = 0.2745	1027.82 ± 2.8	1389 ± 18
303.15 K, φ2 = 0.3672	1018.95 ± 2.6	1386 ± 18
303.15 K, φ2 = 0.4502	1010.93 ± 2.6	1384 ± 18
303.15 K, φ2 = 0.5435	1001.23 ± 2.5	1380 ± 18
303.15 K, φ2 = 0.5664	998.75 ± 2.5	1379 ± 18
303.15 K, φ2 = 0.7307	980.97 ± 2.3	1375 ± 17
303.15 K, φ2 = 0.8795	964.97 ± 2.2	1370 ± 17
308.15 K, φ2 = 0	1046.5 ± 3.1	1385 ± 18
308.15 K, φ2 = 0.0529	1041.91 ± 3.1	1384 ± 18
308.15 K, φ2 = 0.1862	1029.63 ± 2.9	1380 ± 18
308.15 K, φ2 = 0.2747	1021.42 ± 2.8	1378 ± 18
308.15 K, φ2 = 0.3675	1012.63 ± 2.7	1375 ± 18
308.15 K, φ2 = 0.4504	1004.44 ± 2.6	1373 ± 17
308.15 K, φ2 = 0.5438	994.68 ± 2.5	1371 ± 17
308.15 K, φ2 = 0.5666	992.26 ± 2.5	1370 ± 17
308.15 K, φ2 = 0.7309	974.66 ± 2.4	1367 ± 17
308.15 K, φ2 = 0.8796	958.76 ± 2.3	1365 ± 17
313.15 K, φ2 = 0	1040.8 ± 3.2	1368 ± 17
313.15 K, φ2 = 0.0528	1036.3 ± 3.1	1366 ± 17
313.15 K, φ2 = 0.1857	1024.28 ± 3	1362 ± 17
313.15 K, φ2 = 0.2741	1015.97 ± 2.9	1359 ± 17
313.15 K, φ2 = 0.3667	1007.36 ± 2.8	1356 ± 17
313.15 K, φ2 = 0.4497	999.41 ± 2.7	1353 ± 17
313.15 K, φ2 = 0.543	990.26 ± 2.6	1349 ± 17
313.15 K, φ2 = 0.5659	987.92 ± 2.6	1348 ± 17
313.15 K, φ2 = 0.7303	971.38 ± 2.5	1343 ± 17
313.15 K, φ2 = 0.8793	956.39 ± 2.4	1337 ± 17
318.15 K, φ2 = 0	1034.7 ± 3.3	1359 ± 17
318.15 K, φ2 = 0.0527	1030.52 ± 3.2	1358 ± 17
318.15 K, φ2 = 0.1854	1018.59 ± 3.1	1356 ± 17
318.15 K, φ2 = 0.2737	1010.48 ± 3	1352 ± 17
318.15 K, φ2 = 0.3663	1001.85 ± 2.9	1348 ± 17
318.15 K, φ2 = 0.4492	994.13 ± 2.8	1345 ± 17
318.15 K, φ2 = 0.5425	985.18 ± 2.7	1341 ± 17
318.15 K, φ2 = 0.5654	982.97 ± 2.7	1340 ± 17
318.15 K, φ2 = 0.7299	966.83 ± 2.5	1332 ± 17
318.15 K, φ2 = 0.8791	952.07 ± 2.4	1324 ± 17
